The text below walks through data of patent publication US20120064008A1, “COMPOSITIONS FOR THE TREATMENT OF METASTATIC CANCER AND METHODS OF USE THEREOF” (priority 2009, published 2012).

The subject of one data set is DU145-TR cells. As to the kind of experiment: % apoptotic cells, DU145-TR. Format: cell-based, human. As to conditions: 1 μM.
The test system of another data set is PC-3M cells. As to the kind of experiment: Normalized mitotic index (histone H3 phospho-Serine-28), PC-3M. Format: cell-based. As to conditions: Homo sapiens. From the text: (§1) The mitotic index for each agent was normalized against those obtained from vehicle-treated cells, and compared with the activity of paclitaxel, a known inducer of mitotic arrest.
For the next data set, the system named is AT6.1 cells. As to the kind of experiment: Normalized mitotic index (histone H3 phospho-Serine-28), AT6.1. The note with it: Rattus norvegicus, normalized against vehicle-treated cells. Format: cell-based.
Source text: as §1

For data set [1], the system named is multidrug resistant MES-SA/Dx5 human uterine sarcoma cells. As to the kind of experiment: Cell viability, MES-SA/Dx5. The format is cell-based. As to conditions: read-out: ED50 MES-SA/Dx5. The source says: Benzimidazoles retain their anti-tumor activity in these paclitaxel-resistant cells, with higher potency when compared to the parental cells (see Table 4). Cells resistant to microtubule-stabilizing drugs such as the taxanes are more susceptible to microtubule-disrupting agents. To confirm this, human uterine sarcoma MES-SA/Dx5 cells, which are cross-resistant to various chemotherapeutic agents, including the microtubule-disrupting agents vincristine and colchicine, were used.

For another data set, the system named is PC3M cells. Briefly: Annexin V/7-AAD apoptosis by flow cytometry, PC3M. The note with it: 1 μM, 72 hours, combination carrier. Format: cell-based, human. Here is the method:
All benzimidazole drugs were solubilized in the combination carrier. After 72 hours, the cells were analyzed by annexin V/7-AAD staining.
(§2) Annexin V/7-amino-actinomycin D labeling was done according to the manufacturer's instructions (BD Pharmingen, 559763) and samples were analyzed by flow cytometry. Briefly, the cells were treated for 72 hours with either vehicle or 1 μM benzimidazole drugs, solubilized in the combination carrier. Cells were trypsinized and washed with PBS before resuspending in assay binding buffer. Annexin V and 7-amino-actinomycin labeling was performed at room temperature for 15 minutes before analysis by flow cytometry (BD FACScan). Cells positively stained for annexin V in the lower right quadrant and upper right quadrant indicate early and late apoptosis, respectively.
Background: In flow cytometry, cells or beads pass a laser one at a time.

Data set [2] deals with PC3-TR cells. Briefly: % apoptotic cells, PC3-TR. As to conditions: 1 μM. Format: cell-based, human.
Data set [3] deals with DU145 cells. Briefly: % apoptotic cells, DU145. Format: cell-based, human. The note with it: 1 μM.
Data set [4] relates to DU145 cells. As to the kind of experiment: Normalized mitotic index, DU145. Format: cell-based, human. As to conditions: 1 μM.
The nature of data set [5]: Combination with paclitaxel, Cyquant cell growth inhibition, CompuSyn median-dose effect analysis. Format: cell-based. As to conditions: alone or in combination. Here is the method:
Cell growth inhibition assays were performed using Cyquant reagent as described above. Drug interactions were quantitated by median-dose effect analysis and combination index values as well as dose reduction index were derived using CompuSyn software (ComboSyn, Inc.), as described previously in the literature. CI values of <1, =1, and >1 indicate synergism, additivity and antagonism between the drugs, respectively.
All benzimidazole drugs were prepared using the combination carrier and diluted with culture medium prior to treatment.

The next data set relates to PC3 cells. As to the kind of experiment: % apoptotic cells, PC3. The note with it: 1 μM. Format: cell-based, human.
Another data set deals with PC3MLN4 cells. Briefly: Annexin V/7-AAD apoptosis by flow cytometry, PC3MLN4. As to conditions: for apoptotic cells in PC3MLN4: 1 μM, combination carrier. Here is the method:
as §2
All benzimidazole drugs were solubilized in the combination carrier. After 72 hours, the cells were analyzed by annexin V/7-AAD staining. Cells positively stained for annexin V in the lower right quadrant and upper right quadrant indicate early and late apoptosis, respectively.

Data set [6] relates to paclitaxel-resistant DU145-TR prostate cancer cells. Briefly: Cyquant cell viability assay, DU145-TR. The format is cell-based, human. The note with it: Homo sapiens, read-out: ED50 DU145-TR. Here is the method: (§3) The cytotoxic effects of paclitaxel, fenbendazole, and albendazole were compared in paclitaxel-resistant PC3-TR and DU145-TR prostate cancer cells with their paclitaxel-sensitive counterparts, PC3 and DU145 cells. Cells were treated for 72 hours with vehicle, paclitaxel, fenbendazole or albendazole in various doses. Cell viability was measured using Cyquant assay, and percent control was calculated by dividing the fluorescent reading from drug-treated cells with those from vehicle-treated cells, indicating percentage of cell survival.

The subject of data set [7] is paclitaxel-resistant PC3-TR prostate cancer cells. Briefly: Cyquant cell viability assay, PC3-TR. The format is cell-based, human. As to conditions: Homo sapiens, read-out: ED50 PC3-TR. Here is the method:
as §3

Data set [8] deals with DU145 human prostate cancer cells. As to the kind of experiment: Cyquant cell viability assay, DU145. The format is cell-based. The note with it: read-out: ED50 DU145. Here is the method: as §3
Data set [9] deals with PC3MLN4 human prostate cancer cells. As to the kind of experiment: Cyquant cell viability assay, PC3MLN4. The note with it: for EC50: Homo sapiens, 72 h, read-out: ED50 PC3MLN4 DMSO. Here is the method: PC3M and PC3MLN4 cells were treated with vehicle, fenbendazole in DMSO, and fenbendazole in DMSO/NMP/TWEEN®-80/CrEL in varying doses for 72 hours. Cell viability assays using Cyquant reagent (Invitrogen, C7026) were performed as described in the literature. […] cells were seeded in 96 well plates overnight, before treated with either vehicle or benzimidazole solubilized in DMSO alone or in DMSO (12.5%)/NMP ([…])/TWEEN®-80 (25%)/Cr-EL (25%) for 72 hours. Cells were harvested by removing the media, washing once with phosphate buffered saline (PBS) and freezing at −80° C. for overnight. After thawing to room temperature, Cyquant reagent were prepared and added to the wells and the fluorescence intensity were measured with a spectrometer at 485 nm. Percent control was calculated by dividing the reading from drug-treated cells with the reading from vehicle-treated cells.
ED50 values were calculated from dose-effect analysis performed with Compusyn using data from the Cyquant cell viability assays.
ED50 values were calculated from dose-effect analysis performed with Compusyn using data from the Cyquant cell viability assays. All benzimidazoles drugs were solubilized in the combination carrier.

The test system of data set [10] is PC3-TR cells. As to the kind of experiment: Normalized mitotic index, PC3-TR. The format is cell-based, human. As to conditions: 1 μM.
For data set [11], the system named is AT6.1 Dunning rat prostate carcinoma. Briefly: Tumor burden by blood Gaussia luciferase assay in AT6.1 model. As to conditions: 100 mg/kg; until day 22; FIG. 9. The format is in vivo, nu/nu mice. From the text:
Similar to the survival model, treatment was not begun until day 5 when micrometastases were confirmed growing in the lung. For this approach, the AT6.1 cells were engineered to express secreted Gaussia luciferase enzyme. Using measurement of luciferase activity from the peripheral blood as an indicator of overall tumor burden, a significant reduction of tumor burden in the lungs of benzimidazole-treated animals when compared to vehicle-treated mice was observed. After 22 days, the mice were sacrificed and the lungs examined for viable tumor colonies.
Blood Gaussia luciferase assay was performed as described in the literature. Briefly, 10-20 μL peripheral blood was collected from the animals once a week via the retro-orbital vein. Secreted GAR luciferase activity was measured using a luminometer by adding 100 μL of 100 μM coelentrazine (Prolume, Nanolight, #303) to 5 μL blood and 2 μL of 20 mM EDTA. Relative luciferase reading from the blood collected represents the tumor burden in each animal. The reading was performed with blood collected at day 19 post inoculation when all mice were still alive.

Read-outs that look alike come from different tables or passages of the source.

On to `CCCSc1ccc2nc(NC(=O)OC)[nH]c2c1` [Albendazole, albendazole], for which, in the data set with DU145-TR cells, the “% Apoptotic cells (72 hours) DU145-TR” value is 55.8%. Further, the fold induction at 1 µM was more than 1 with PC-3M cells (read-out: Normalized mitotic index PC-3M, at 1 μM, normalized against vehicle-treated cells) and more than 1 in the data set on AT6.1 cells (read-out: Normalized mitotic index AT6.1, at 1 μM). Also, the EC50 turned out to be 840 nM in data set [1]; 1080 nM in [6] (72 h); 800 nM in data set [7] (72 h); 2410 nM in data set [8] (DU-145, 72 h); 4680 nM in [9]. In addition, the “apoptotic cells in PC3M” value in the data set on PC3M cells was 22%. The “% Apoptotic cells (72 hours) PC3-TR” value in the data set with PC3-TR cells [2] amounted to 25.8%. The “% Apoptotic cells (72 hours) DU145” value in the data set on DU145 cells [3] is 27%. The “Normalized mitotic index (6 hours) DU145” value in the data set with DU145 cells [4] is 1.93. Further, in data set [5] (Fa 0.60), the “Dose ABZ” value came to 5.249 µM. The “% Apoptotic cells (72 hours) PC3” value in the data set with PC3 cells is on record as 13.2%. The “apoptotic cells in PC3MLN4” value with PC3MLN4 cells (72 hours) turned out to be 29.7%. Further, the “cytotoxic activity via apoptosis in highly metastatic prostate cancer cells” value in the data set with PC3MLN4 cells (72 hours, annexin V) is “induction of apoptosis”. Also, the “cytotoxicity in the combination carrier compared to DMSO alone” value in [9] (PC3MLN4 cells, 72 hours) is on record as “greater cytotoxicity”. In addition, the “cytotoxicity in highly metastatic cells relative to PC-3M” value in [9] (PC-3MLN4 (b184 also AT6.1) relative to PC-3M) was “greater cytotoxicity”. Further, the “Normalized mitotic index (6 hours) PC3-TR” value in the data set on PC3-TR cells [10] is reported as 1.56. Further, the “tumor burden compared to the control” value in [11] is “significant reduction in tumor burden”.

As to `COC(=O)Nc1nc2ccc(Sc3ccccc3)cc2[nH]1` [Fenbendazole, fenbendazole], in the data set on DU145-TR cells, the “% Apoptotic cells (72 hours) DU145-TR” value is 43.3%. For the same compound, the fold induction at 1 µM with PC-3M cells (at 1 μM, normalized against vehicle-treated cells, read-out: Normalized mitotic index PC-3M) is more than 1; with AT6.1 cells (at 1 μM, read-out: Normalized mitotic index AT6.1), more than 1. Further, the EC50 in [1] turned out to be 1130 nM; in data set [5] (Fa 0.50, read-out: Dose FBZ) it was 6210 nM; in data set [6] (72 hours, paclitaxel-resistant), 4210 nM; in data set [7] (72 hours, paclitaxel-resistant), 320 nM; in data set [8] (DU-145, 72 hours), 10700 nM; in data set [9] it was 1930 nM. Further, in the data set on PC3M cells, the “apoptotic cells in PC3M” value is reported as 22.8%. The “% Apoptotic cells (72 hours) PC3-TR” value in the data set with PC3-TR cells [2] worked out at 34.4%. Also, the “% Apoptotic cells (72 hours) DU145” value with DU145 cells [3] is given as 26%. For the same compound, the “Normalized mitotic index (6 hours) DU145” value with DU145 cells [4] worked out at 1.47. The “% Apoptotic cells (72 hours) PC3” value in the data set on PC3 cells turned out to be 16.1%. In addition, the “cytotoxic activity via apoptosis in highly metastatic prostate cancer cells” value with PC3MLN4 cells was “induction of apoptosis”. In addition, in the data set on PC3MLN4 cells (72 hours), the “apoptotic cells in PC3MLN4” value is listed as 31.4%. Also, in data set [9], the “cytotoxicity in the combination carrier compared to DMSO alone” value is given as “greater cytotoxicity”. Besides, in data set [9] (solubilized in DNTC vs DMSO), the “reduction in ED50, DNTC compared to DMSO, PC-3MLN4” value is approximately 2 fold. In addition, in the data set with PC3-TR cells [10], the “Normalized mitotic index (6 hours) PC3-TR” value is listed as 1.48. Besides, the “tumor burden compared to the control” value in data set [11] is “significant reduction in tumor burden”.
